Tested on: A375 cells
Assay: Aerobic glycolysis (NAD+) fluorescence of PFK15-treated A375 cells read out with C3N quantum dots
Assay type: cell-based
Conditions: PFK15 20 nM, 12 h; then C3N quantum dots 1 μg/mL 2 h at 25° C.; excitation 400 nm
Experimental: A375 cells were selected as the samples to be tested with a cell concentration of 10^5.
[…] (PFK15, 20 nM) was added to the cell samples to be tested and incubated for 12 h. C3N quantum dots (with a diameter of 1 nm, a concentration of 1 μg/mL, a solvent of saline) were selected as the aerobic glycolysis detection product. 1 μL of C3N quantum dots were added to the samples to be tested and incubated for 2 h at 25° C. The fluorescence of the samples was observed by a fluorescence microscope (with an excitation wavelength of 400 nm). It can be seen that the fluorescence of the A375 cells with PFK15 treatment (PFK15 can block the aerobic glycolysis metabolism and reduce the NAD^+ concentration in cytoplasm) was decreased by 43% compared with that of the group without PFK15 treatment (results were shown in FIG. 5).

In the case of O=C(C=Cc1ccc2ccccc2n1)c1ccncc1 [PFK15, 1-(4-pyridinyl)-3-(2-quinolinyl)-2-propen-1-one], the “decrease of fluorescence of A375 cells compared with group without PFK15 treatment” value is reported as 43%.
